Measured values reported in patent US20240109917A1 (ACTELION PHARMACEUTICALS LTD, priority 2020, published 2024).

Biological target: His6-TEV-PDGFRβ (557-1016) (Homo sapiens (Human), UniProt P09619)
Test: PDGFRβ HTRF Assay
Type: biochemical
Conditions: read-out: PDGFR HTRF IC50
Summary of the method: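 HTRF KinEASE-TK readout (665/620 nm ratio) of TK-biotin substrate phosphorylation by His-tagged PDGFRβ kinase domain. Enzyme and inhibitor preincubated 30 min, then ATP/substrate added for 3 h at room temperature before 60 min EDTA quench/detection.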

Chain of His6-TEV-PDGFRβ (557-1016) (P09619 557-1016): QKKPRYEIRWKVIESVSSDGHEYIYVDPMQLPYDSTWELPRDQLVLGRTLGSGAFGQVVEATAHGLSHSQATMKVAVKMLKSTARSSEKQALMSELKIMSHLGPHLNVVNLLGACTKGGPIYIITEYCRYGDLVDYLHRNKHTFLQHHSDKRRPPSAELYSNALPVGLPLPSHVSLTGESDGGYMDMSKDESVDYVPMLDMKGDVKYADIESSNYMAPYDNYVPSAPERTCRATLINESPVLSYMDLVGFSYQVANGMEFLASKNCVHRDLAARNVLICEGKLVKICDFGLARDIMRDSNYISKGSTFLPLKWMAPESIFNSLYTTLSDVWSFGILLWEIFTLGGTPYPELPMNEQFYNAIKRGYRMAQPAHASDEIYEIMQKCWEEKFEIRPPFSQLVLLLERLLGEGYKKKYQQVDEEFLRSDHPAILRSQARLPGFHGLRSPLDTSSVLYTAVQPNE

| Compound | IC50 [nM] |
| --- | --- |
| Cc1ncc(C(=O)NCCN2CC3CCC2CC3)cc1NC(=O)c1cnn2cc(-c3cnn4c3CCC4)sc12 [Example 480, N-(5-((2-(2-azabicyclo[2.2.2]octan-2-yl)ethyl)carbamoyl)-2-methylpyridin-3-yl)-2-(5,6-dihydro-4H-pyrrolo[1,2-b]pyrazol-3-yl)pyrazolo[5,1-b]thiazole-7-carboxamide] | 0.3 |
| Cc1ncc(NC(=O)CN2C[C@@H](C)O[C@H](C)C2)cc1NC(=O)c1cnn2cc(-c3cnn(CCS(C)(=O)=O)c3)sc12 (relative stereo) [Example 432, N-(5-(2-(trans-2,6-dimethylmorpholino)acetamido)-2-methylpyridin-3-yl)-2-(1-(2-(methylsulfonyl)ethyl)-1H-pyrazol-4-yl)pyrazolo[5,1-b]thiazole-7-carboxamide] | 1.1 |
| Cc1ncc(C(=O)NCCN2CCCC23CCC3)cc1NC(=O)c1cnn2cc(-c3cnn4c3CCC4)sc12 [Example 461, N-(5-((2-(5-azaspiro[3.4]octan-5-yl)ethyl)carbamoyl)-2-methylpyridin-3-yl)-2-(5,6-dihydro-4H-pyrrolo[1,2-b]pyrazol-3-yl)pyrazolo[5,1-b]thiazole-7-carboxamide] | 0.2 |
| Cc1ncc(NC(=O)CN2CCCCC2)cc1NC(=O)c1cnn2cc(-c3cnn4c3OCCC4)sc12 [Example 419, 2-(6,7-dihydro-5H-pyrazolo[5,1-b][1,3]oxazin-3-yl)-N-(2-methyl-5-(2-(piperidin-1-yl)acetamido)pyridin-3-yl)pyrazolo[5,1-b]thiazole-7-carboxamide] | 0.3 |
| COCCn1cc(-c2cn3ncc(C(=O)Nc4cc(NC(=O)C[C@@H]5CCCN5C(C)C)cnc4C)c3s2)cn1 [Example 451, (S)—N-(5-(2-(1-isopropylpyrrolidin-2-yl)acetamido)-2-methylpyridin-3-yl)-2-(1-(2-methoxyethyl)-1H-pyrazol-4-yl)pyrazolo[5,1-b]thiazole-7-carboxamide] | 0.8 |
| Cc1ncc(C(=O)NCCN2CCCC2(C)C)cc1NC(=O)c1cnn2cc(-c3cnn4c3CCC4)sc12 [Example 481, 2-(5,6-dihydro-4H-pyrrolo[1,2-b]pyrazol-3-yl)-N-(5-((2-(2,2-dimethylpyrrolidin-1-yl)ethyl)carbamoyl)-2-methylpyridin-3-yl)pyrazolo[5,1-b]thiazole-7-carboxamide] | 0.3 |
